Test results from US20100311683A1, “CYTIDINE ANALOGS FOR TREATMENT OF MYELODYSPLASTIC SYNDROMES” (priority 2007, published 2010).
Read-outs that look alike come from different tables or passages of the source.

Tests used:
[1] = tested on: patients with hematologic disorders, predominantly low-risk MDS; test: AVIDA longitudinal registry of patients receiving azacitidine (transfusion independence); type: in vivo, human
Excerpt: The study assessed usage patterns and transfusion requirements in patients enrolled in AVIDA, a longitudinal registry of patients with hematologic disorders receiving azacitidine, to further the understanding of current azacitidine treatment patterns in the community, identify common care procedures and concomitant treatments, and document transfusion requirements. Baseline demographics and disease characteristics were obtained at enrollment.

[2] = tested on: high-risk MDS patients with -7/del(7q); test: AZA-001 subgroup analysis: patients with -7/del(7q); type: in vivo, human
[3] = tested on: patients ≥60 years with AML
MDS patients [4] = conditions: pivotal CALGB study, approved Aza dose regimen subcutaneously; cited from earlier work
[5] = tested on: patients older than 55 years of age with AML; conditions: patients older than 55 years with AML, prior retrospective analysis; cited from earlier work
MDS patients [6] = tested on: MDS patients

Nc1ncn([C@@H]2O[C@H](CO)[C@@H](O)[C@H]2O)c(=O)n1 [azacitidine, 4-amino-1-β-D-ribofuranosyl-1,3,5-triazin-2(1H)-one]
patients with a history of transfusions who achieved transfusion-independence ([1]; 16/43, at least 2 cycles of azacitidine): 37% | patients without a history of transfusion who achieved transfusion independence ([1]; 22/27, at least 2 cycles of azacitidine): 81% | median cycles to transfusion independence ([1]; patients with a history of transfusions): 6 cycles | median cycles to transfusion independence ([1]; patients without a history of transfusion): 4 cycles | IWG 2000 response rate (CR+PR) ([2]; -7/del(7q) alone): 64% | IWG 2000 response rate (CR+PR) ([2]; -7/del(7q) as part of complex karyotype): 21% | CR ([2]; -7/del(7q) patients): 8/30, 27% | CR + PR ([2]; -7/del(7q) patients): 13/30, 43% | HI-E ([2]; -7/del(7q) patients): 13/26, 50% | HI-P ([2]; -7/del(7q) patients): 10/20, 50% | RBC TI (transfusion independence) ([2]; RBC-dependent -7/del(7q) patients at BL): 12/21, 57% | OS advantage at 2 years vs CCR ([2]; patients with -7/del(7q)): 4 fold | hazard ratio for overall survival, azacitidine vs CCR ([2]; patients with -7/del(7q)): 0.33 | improvement in OS over CCR ([2]; patients with -7/del(7q)): 3 fold | median Kaplan Meier difference in OS, AZA vs CCR ([2]; patients with -7/del(7q)): 8.4 months | patients alive at 2 years ([2]; patients with -7/del(7q)): 33% | reduced risk of death vs CCR ([2]; patients with -7/del(7q)): 67% | tolerability ([2]; patients with -7/del(7q)): generally well tolerated | median Kaplan-Meier overall survival ([2]; patients with -7/del(7q), azacitidine n=30): 13.1 months | fatigue ([3]; 5/8): 63% | mild injection site skin reaction ([3]; 5/8): 63% | mean overall survival time from diagnosis ([3]; all patients): 180 days | overall response rate ([3]; azacitidine 100 mg/m2 SC 5 days every 28 days, 6/8 patients): 75% | mean number of days hospitalized during therapy ([3]; in vivo): 18 days | treatment related deaths ([3]; in vivo): No treatment related deaths were observed | complete response (CR) ([3]; n=2 of 8): 25% | partial response (PR) ([3]; n=4 of 8): 50% | mean overall survival time ([3]; responders): 200 days | responders who became independent of RBC transfusion ([3]; two of the six responders): 33% | baseline RBC transfusion dependent patients who achieved transfusion independence (MDS patients [4]): 45% | overall response rate [5]: 60% | FAB low-risk patients RBC transfusion independent at baseline who remained independent during the study (MDS patients [6]; AZA 5 (75 mg/m2/d x5d)): 64% | RBC transfusion-dependent patients who achieved and retained independence at the end of cycle 6 (MDS patients [6]; AZA 5 (75 mg/m2/d x5d)): 63% | evaluable patients RBC transfusion independent at baseline who remained independent during the study (MDS patients [6]; AZA 5 (75 mg/m2/d x5d)): 68% | mean duration of RBC transfusion independence (MDS patients [6]; AZA 5 (75 mg/m2/d x5d)): 109 days | onset of HI within the first 3 cycles (MDS patients [6]; AZA 5 (75 mg/m2/d x5d)): 96% | patients with at least 1 treatment-emergent AE that led to study discontinuation (MDS patients [6]; AZA 5 (75 mg/m2/d x5d)): 14% | patients with bilineage HI (MDS patients [6]; AZA 5 (75 mg/m2/d x5d)): 10% | patients with serious AEs (MDS patients [6]; AZA 5 (75 mg/m2/d x5d)): 30% | Any HI (major and minor) (MDS patients [6]; AZA 5 (75 mg/m2/d x5d), N=49): 27 (55) [40, 69] % | Erythroid Major HI (IWG 2000), evaluable patients (MDS patients [6]; AZA 5 (75 mg/m2/d x5d), N=49): 18 (37) [23, 52] % | Erythroid Minor HI (MDS patients [6]; AZA 5 (75 mg/m2/d x5d), N=49): 1 (2) [0.1, 11] % | Neutrophil Major HI (MDS patients [6]; AZA 5 (75 mg/m2/d x5d), N=49): 4 (8) [40, 100] % | Neutrophil Minor HI (MDS patients [6]; AZA 5 (75 mg/m2/d x5d), N=49): 2 (4) [0.5, 14] % | Platelet Major HI (MDS patients [6]; AZA 5 (75 mg/m2/d x5d), N=49): 9 (18) [9, 32] % | Platelet Minor HI (MDS patients [6]; AZA 5 (75 mg/m2/d x5d), N=49): 2 (4) [0.5, 14] % | Grade 3/4 AE: Anemia (MDS patients [6]; AZA 5 (75 mg/m2/d x5d), N=50): 5 (10) % | Grade 3/4 AE: Candida Sepsis (MDS patients [6]; AZA 5 (75 mg/m2/d x5d), N=50): 1 (2) % | Grade 3/4 AE: Cellulitis (MDS patients [6]; AZA 5 (75 mg/m2/d x5d), N=50): 1 (2) % | Grade 3/4 AE: Epistaxis (MDS patients [6]; AZA 5 (75 mg/m2/d x5d), N=50): 0% | Grade 3/4 AE: Febrile neutropenia (MDS patients [6]; AZA 5 (75 mg/m2/d x5d), N=50): 1 (2) % | Grade 3/4 AE: GI hemorrhage (MDS patients [6]; AZA 5 (75 mg/m2/d x5d), N=50): 0% | Grade 3/4 AE: Hematologic Disorders (MDS patients [6]; AZA 5 (75 mg/m2/d x5d), N=50): 17 (34) % | Grade 3/4 AE: Hemorrhagic Events (MDS patients [6]; AZA 5 (75 mg/m2/d x5d), N=50): 1 (2) % | Grade 3/4 AE: Hemorrhagic anemia (MDS patients [6]; AZA 5 (75 mg/m2/d x5d), N=50): 1 n (%) | Grade 3/4 AE: Infections (MDS patients [6]; AZA 5 (75 mg/m2/d x5d), N=50): 5 (10) % | Grade 3/4 AE: Leukopenia (MDS patients [6]; AZA 5 (75 mg/m2/d x5d), N=50): 4 (8) % | Grade 3/4 AE: Neutropenia (MDS patients [6]; AZA 5 (75 mg/m2/d x5d), N=50): 11 (22) % | Grade 3/4 AE: Pneumonia (MDS patients [6]; AZA 5 (75 mg/m2/d x5d), N=50): 1 (2) % | Grade 3/4 AE: Rectal hemorrhage (MDS patients [6]; AZA 5 (75 mg/m2/d x5d), N=50): 0% | Grade 3/4 AE: Thrombocytopenia (MDS patients [6]; AZA 5 (75 mg/m2/d x5d), N=50): 6 (12) % | Grade 3/4 AE: Urinary tract infection (MDS patients [6]; AZA 5 (75 mg/m2/d x5d), N=50): 0% | Grade 3/4 AE: ≥1 Adverse Event (MDS patients [6]; AZA 5 (75 mg/m2/d x5d), N=50): 29 (58) % | onset of IWG-defined HI in Cycle 1 (MDS patients [6]; AZA 5 (75 mg/m2/d x5d), n=28): 15 (54) % | onset of IWG-defined HI in Cycle 2 (MDS patients [6]; AZA 5 (75 mg/m2/d x5d), n=28): 10 (36) % | onset of IWG-defined HI in Cycle 3 (MDS patients [6]; AZA 5 (75 mg/m2/d x5d), n=28): 2 (7) % | onset of IWG-defined HI in Cycle 4 (MDS patients [6]; AZA 5 (75 mg/m2/d x5d), n=28): 1 (4) % | onset of IWG-defined HI in Cycle 5 (MDS patients [6]; AZA 5 (75 mg/m2/d x5d), n=28): 0% | onset of IWG-defined HI in Cycle 6 (MDS patients [6]; AZA 5 (75 mg/m2/d x5d), n=28): 0% | FAB low-risk patients RBC transfusion independent at baseline who remained independent during the study (MDS patients [6]; AZA 5-2-2 (75 mg/m2/d)): 75% | RBC transfusion-dependent patients who achieved and retained independence at the end of cycle 6 (MDS patients [6]; AZA 5-2-2 (75 mg/m2/d)): 100% | evaluable patients RBC transfusion independent at baseline who remained independent during the study (MDS patients [6]; AZA 5-2-2 (75 mg/m2/d)): 67% | mean duration of RBC transfusion independence (MDS patients [6]; AZA 5-2-2 (75 mg/m2/d)): 135 days | onset of HI within the first 3 cycles (MDS patients [6]; AZA 5-2-2 (75 mg/m2/d)): 87% | patients with at least 1 treatment-emergent AE that led to study discontinuation (MDS patients [6]; AZA 5-2-2 (75 mg/m2/d)): 18% | patients with bilineage HI (MDS patients [6]; AZA 5-2-2 (75 mg/m2/d)): 11% | patients with serious AEs (MDS patients [6]; AZA 5-2-2 (75 mg/m2/d)): 54% | Any HI (major and minor) (MDS patients [6]; AZA 5-2-2 (75 mg/m2/d), N=46): 20 (44) [29, 59] % | Erythroid Major HI (IWG 2000), evaluable patients (MDS patients [6]; AZA 5-2-2 (75 mg/m2/d), N=46): 15 (33) [20, 48] % | Erythroid Minor HI (MDS patients [6]; AZA 5-2-2 (75 mg/m2/d), N=46): 1 (2) [0.1, 12] % | Neutrophil Major HI (MDS patients [6]; AZA 5-2-2 (75 mg/m2/d), N=46): 3 (7) [29, 100] % | Neutrophil Minor HI (MDS patients [6]; AZA 5-2-2 (75 mg/m2/d), N=46): 0 [0, 8] % | Platelet Major HI (MDS patients [6]; AZA 5-2-2 (75 mg/m2/d), N=46): 10 (22) [11, 36] % | Platelet Minor HI (MDS patients [6]; AZA 5-2-2 (75 mg/m2/d), N=46): 0 [0, 8] % | Grade 3/4 AE: Anemia (MDS patients [6]; AZA 5-2-2 (75 mg/m2/d), N=50): 12 (24) % | Grade 3/4 AE: Candida Sepsis (MDS patients [6]; AZA 5-2-2 (75 mg/m2/d), N=50): 0% | Grade 3/4 AE: Cellulitis (MDS patients [6]; AZA 5-2-2 (75 mg/m2/d), N=50): 2 (4) % | Grade 3/4 AE: Epistaxis (MDS patients [6]; AZA 5-2-2 (75 mg/m2/d), N=50): 1 (2) %
